From US4783452A, “Platinum coordination compounds” (Johnson Matthey Public Limited Company, priority 1985, dated 1988) come the findings set out here.

The subject of the series is ADJ/PC6 tumour. Kind of series: anti-tumour activity against ADJ/PC6 tumour implanted into female Balb C- mice. To be noted: for TI / ED90: ADJ/PC6 tumour; for ED90: in mg/kg (unit assumed). It counts as in vivo. Details: LD50: unit not given here. As for the experimental part:
Compounds were administered both parenterally (IP) and orally (PO).

Regarding `CC1(C)OC(CN)C(CN)O1.[Br][Pt][Br]` (racemic) [cis-dibromo[4,5-bis(aminomethyl)-2,2-dimethyl-1,3-dioxolane]platinum (II)], under “IP (parenteral)”, the LD50 amounted to 21, the TI was 5.2 and the ED90 worked out at 4.
With `CC1(C)OC(CN)C(CN)O1.[Cl][Pt][Cl]` [cis-dichloro[(4R,5R)-4,5-bis-(aminomethyl)-2,2-dimethyl-1,3-] [cis-dichloro[(4R,5R)-4,5-bis-(aminomethyl)-2,2-dimethyl-1,3-dioxolane]platinum (II)], where the note is “IP (parenteral)”, the LD50 was 35, the TI came out at 22.6 and the ED90 was 1.6. For the setting “PO (oral)”, this molecule had an LD50 of 1100, a TI of 122 and an ED90 of 9.
Take `CC1(C)OC(CN)C(CN)O1.[Cl][Pt][Cl]` [cis-dichloro[(4S,5S)-4,5-bis-(aminomethyl)-2,2-dimethyl-1,3-] [cis-dichloro[(4S,5S)-4,5-bis-(aminomethyl)-2,2-dimethyl-1,3-dioxolane]platinum (II)]: for the setting “IP (parenteral)”, the LD50 worked out at 35, the TI came to 23.9 and the ED90 was found to be 1.46. For the setting “PO (oral)”, this molecule had an LD50 of 1130, a TI of 43.5 and an ED90 of 26.
`[Cl][Pt]1([Cl])[NH]CC2OC(c3ccccc3)OC2C[NH]1` [cis-dichloro[(4S,5S)-4,5-bis-(aminomethyl)-2-phenyl-1,3-dioxolane]platinum (II)]: under “IP (parenteral)”, the LD50 is listed as greater than 800, the TI is greater than 26 and the ED90 was found to be 30. Further, under “PO (oral)”, the LD50 is on record as greater than 1600, the TI was greater than 1 and the ED90 is ~ 1600.
Regarding “cis-dichloro[2,3-dihydroxy-1,2-diamino butane)-platinum (II) [reference compound]”, for the setting “IP (parenteral)”, the LD50 was greater than 400, the TI is given as greater than 1 and the ED90 was 380. Also, under “PO (oral)”, the LD50 is greater than 800.
